Experimental data published in the supplement of paper PMC10307832.

Experiments:
Experiment in all cases: relative viability (nuclei count vs DMSO), 5 days (fraction); higher = more cells survive
Fedratinib + Pictilisib = compound: Cc1cnc(Nc2ccc(OCCN3CCCC3)cc2)nc1Nc1cccc(S(=O)(=O)NC(C)(C)C)c1 [Fedratinib] + CS(=O)(=O)N1CCN(Cc2cc3nc(-c4cccc5[nH]ncc45)nc(N4CCOCC4)c3s2)CC1 [Pictilisib] (partner 1 µM)
Outline: (§1)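 Relative viability divides the nuclei count in treated wells by that in vehicle wells. Lung cancer cell lines were seeded in 1536-well plates, dosed by pin tool the next day, and fixed and stained after 5 days in one step with final 0.05% Triton X-100, 1% formaldehyde and 1 ug/ml Hoechst. Dosing was a single drug or a fixed anchor-drug dose plus five library-drug doses (not always all listed) in √10 steps, and values are medians of duplicate plates imaged at 4×.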

GW-2580 + Palbociclib = compound: COC1=CC=C(C=C1)COC2=C(C=C(C=C2)CC3=CN=C(N=C3N)N)OC [GW-2580] + CC(=O)c1c(C)c2cnc(Nc3ccc(N4CCNCC4)cn3)nc2n(C2CCCC2)c1=O [Palbociclib] (partner 0.5 µM)
Outline: as §1

Fedratinib + Olaparib = compound: Cc1cnc(Nc2ccc(OCCN3CCCC3)cc2)nc1Nc1cccc(S(=O)(=O)NC(C)(C)C)c1 [Fedratinib] + O=C(c1cc(Cc2n[nH]c(=O)c3ccccc23)ccc1F)N1CCN(C(=O)C2CC2)CC1 [Olaparib] (partner 8 µM)
Outline: as §1

Fedratinib + Trametinib = compound: Cc1cnc(Nc2ccc(OCCN3CCCC3)cc2)nc1Nc1cccc(S(=O)(=O)NC(C)(C)C)c1 [Fedratinib] + CC(=O)Nc1cccc(-n2c(=O)n(C3CC3)c(=O)c3c(Nc4ccc(I)cc4F)n(C)c(=O)c(C)c32)c1 [Trametinib] (partner 0.02 µM)
Outline: as §1

GW-2580 + Foretinib = compound: COC1=CC=C(C=C1)COC2=C(C=C(C=C2)CC3=CN=C(N=C3N)N)OC [GW-2580] + COc1cc2c(Oc3ccc(NC(=O)C4(C(=O)Nc5ccc(F)cc5)CC4)cc3F)ccnc2cc1OCCCN1CCOCC1 [Foretinib] (partner 0.25 µM)
Outline: as §1

Fedratinib + Palbociclib = compound: Cc1cnc(Nc2ccc(OCCN3CCCC3)cc2)nc1Nc1cccc(S(=O)(=O)NC(C)(C)C)c1 [Fedratinib] + CC(=O)c1c(C)c2cnc(Nc3ccc(N4CCNCC4)cn3)nc2n(C2CCCC2)c1=O [Palbociclib] (partner 0.5 µM)
Outline: as §1

Cell Line | relative viability (Fedratinib + Pictilisib; first compound 0.1 µM) | relative viability (Fedratinib + Pictilisib; first compound 0.3162 µM) | relative viability (Fedratinib + Pictilisib; first compound 1 µM) | relative viability (GW-2580 + Palbociclib; first compound 0.08 µM) | relative viability (GW-2580 + Palbociclib; first compound 0.8 µM) | relative viability (GW-2580 + Palbociclib; first compound 2.53 µM) | relative viability (GW-2580 + Palbociclib; first compound 8 µM) | relative viability (Fedratinib + Olaparib; first compound 0.1 µM) | relative viability (Fedratinib + Olaparib; first compound 0.3162 µM) | relative viability (Fedratinib + Olaparib; first compound 1 µM) | relative viability (Fedratinib + Trametinib; first compound 0.1 µM) | relative viability (Fedratinib + Trametinib; first compound 0.3162 µM) | relative viability (Fedratinib + Trametinib; first compound 1 µM) | relative viability (GW-2580 + Foretinib; first compound 0.08 µM) | relative viability (GW-2580 + Foretinib; first compound 0.8 µM) | relative viability (GW-2580 + Foretinib; first compound 2.53 µM) | relative viability (GW-2580 + Foretinib; first compound 8 µM) | relative viability (Fedratinib + Palbociclib; first compound 0.1 µM) | relative viability (Fedratinib + Palbociclib; first compound 0.3162 µM) | relative viability (Fedratinib + Palbociclib; first compound 1 µM)
201T | 0.679 | 0.705 | 0.601 | 0.388 | 0.4 | 0.375 | 0.351 | 0.846 | 0.867 | 0.794 | 0.697 | 0.769 | 0.718 | 1.09 | 1.1 | 1.24 | 1.13 | 0.362 | 0.342 | 0.33
A549 | 0.531 | 0.465 | 0.434 |  |  |  |  | 0.391 | 0.269 | 0.354 |  |  |  | 1.01 | 0.577 | 1.06 | 0.902 |  |  | 
A-427 | 0.639 | 0.758 | 0.329 | 0.521 | 0.534 | 0.52 | 0.529 | 0.648 | 0.708 | 0.716 | 0.633 | 0.649 | 0.627 | 1.1 | 1.14 | 0.892 | 1.01 | 0.505 | 0.492 | 0.487
ABC-1 | 0.694 | 0.809 | 0.318 | 0.74 | 0.768 | 0.503 | 0.696 | 0.657 | 0.984 | 0.822 |  |  |  | 1.09 | 1.16 | 0.931 | 0.86 | 0.691 | 0.704 | 0.609
BEN | 0.477 | 0.575 | 0.498 | 0.491 | 0.507 | 0.471 | 0.491 | 1.07 | 1.01 | 0.972 | 0.846 | 0.945 | 0.926 | 0.61 | 0.731 | 0.406 | 0.674 | 0.473 | 0.429 | 0.471
CAL-12T | 0.454 | 0.615 | 0.162 | 0.639 | 0.416 | 0.517 | 0.413 | 0.654 | 0.737 | 0.764 | 0.4 | 0.332 | 0.304 | 1.2 | 1.25 | 1.11 | 1.06 | 0.295 | 0.411 | 0.446
COR-L23 | 0.891 | 0.809 | 0.707 | 0.264 | 0.328 | 0.302 | 0.288 | 0.326 | 0.381 | 0.302 | 0.576 | 0.604 | 0.155 | 1.12 | 1.15 | 1.09 | 0.882 | 0.303 | 0.26 | 0.131
COR-L 105 | 0.364 | 0.471 | 0.284 | 0.434 | 0.398 | 0.413 | 0.39 | 0.669 | 0.693 | 0.708 | 0.39 | 0.442 | 0.422 | 1.09 | 1.19 | 1.05 | 0.993 | 0.393 | 0.41 | 0.405
Calu-6 | 0.845 | 0.866 | 0.736 |  |  |  |  | 0.618 | 0.588 | 0.55 |  |  |  | 0.866 | 0.898 | 0.915 | 0.858 |  |  | 
ChaGo-K-1 | 0.487 | 1 | 0.289 | 0.927 | 0.943 | 0.88 | 0.895 | 0.469 | 0.402 | 0.391 | 0.765 | 0.841 | 0.873 | 0.994 | 0.965 | 0.924 | 0.881 | 0.966 | 0.814 | 0.961
EBC-1 | 0.27 | 0.33 | 0.251 |  |  |  |  | 0.609 | 0.654 | 0.551 |  |  |  | 0.0973 | 0.114 | 0.107 | 0.0908 |  |  | 
EKVX | 0.497 | 0.426 | 0.504 | 0.341 | 0.392 | 0.675 | 0.327 | 0.969 | 0.811 | 0.853 | 0.333 | 0.293 | 0.363 | 0.971 | 1.11 | 0.726 | 0.779 | 0.391 | 0.403 | 0.414
EMC-BAC-2 | 0.499 | 0.575 | 0.538 | 0.536 | 0.545 |  | 0.493 | 0.493 | 0.455 | 0.472 | 0.931 | 0.939 | 0.978 | 1.13 | 1.11 | 1.04 | 0.865 | 0.533 | 0.503 | 0.489
EPLC-272H | 0.257 | 0.35 | 0.0901 | 0.317 | 0.337 |  | 0.313 | 0.601 | 0.847 | 0.459 | 0.275 | 0.281 | 0.278 | 0.73 | 0.766 |  | 0.605 | 0.318 | 0.339 | 0.365
H3255 | 0.42 | 0.48 | 0.432 | 0.308 | 0.3 | 0.317 | 0.279 | 0.532 | 0.518 | 0.522 | 0.506 | 0.69 | 0.706 | 0.859 | 0.835 | 0.742 | 0.829 | 0.277 | 0.303 | 0.318
HARA | 0.348 | 0.422 | 0.306 | 0.238 | 0.24 | 0.265 | 0.291 | 0.785 | 0.826 | 0.557 | 0.521 | 0.907 | 0.546 | 1.06 | 0.849 | 1.03 | 0.676 | 0.261 | 0.301 | 0.214
